ChEMBL document CHEMBL1130692, “Novel B-ring modified combretastatin analogues: syntheses and antineoplastic activity” (Bioorg Med Chem Lett, 1998)
pIC50: −log10 of the molar value.

Tests used:
[1] = test system: Colon 26; experiment: Cytotoxic activity was determined against Colon 26 adenocarcinoma cells; format: functional, cell-based; settings: Mus musculus
[2] = species: Bos taurus; experiment: Inhibitory activity was determined against tubulin polymerization of bovine brain tubulin; format: functional

| pIC50 [2] | SMILES | pIC50 [1] |
| --- | --- | --- |
| < 5.00 | COc1cnc(/C=C\c2cc(OC)c(OC)c(OC)c2)nc1 | < 5.52 |
| 5.70 | COc1ccc(/C=C\c2cc(OC)c(OC)c(OC)c2)cn1 | 7.53 |
| < 5.00 | COc1cc(/C=C\c2ccc(=O)n(C)c2)cc(OC)c1OC | < 5.52 |
| < 5.00 | COc1ccc(/C=C\c2cc(OC)c(OC)c(OC)c2)nn1 | < 5.52 |
| < 5.00 | COc1cc(/C=C\c2cc[n+]([O-])cc2)cc(OC)c1OC | < 5.52 |
| 5.05 | COc1cnc(/C=C\c2cc(OC)c(OC)c(OC)c2)cn1 | 6.06 |
| 5.52 | COc1ncc(/C=C\c2cc(OC)c(OC)c(OC)c2)cn1 | 6.56 |
| 5.52 | COc1ccc(/C=C\c2cc(OC)c(OC)c(OC)c2)nc1 | 6.74 |
| – | COc1cc(/C=C\c2cc[n+](C)cc2)cc(OC)c1OC | < 5.52 |
| 5.70 | COc1cc(/C=C\c2ccn(C)c(=O)c2)cc(OC)c1OC | 7.72 |

| SMILES | pIC50 [2] | pIC50 [1] |
| --- | --- | --- |
| COc1ccc(/C=C\c2cc(OC)c(OC)c(OC)c2)cc1N | 6.00 | – |
| COc1ccc(/C=C\c2cc(OC)c(OC)c(OC)c2)cc1O [COMBRETASTATIN A4] | 5.70 | 8.06 |
